IC50 data for 4 compounds are collected here from patent US11453660B2, “Androgen receptor and glucocorticoid receptor modulators” (ONCOSTELLAE, S.L., priority 2017, dated 2022).

A value given as a limit tells only on which side of the number the result lay.

The experiment addresses T1, Rat Androgen Receptor (Rattus norvegicus, UniProt P15207).
T1 construct: purchased Life Technologies A15880
T1 sequence (P15207 646-902 limits assumed): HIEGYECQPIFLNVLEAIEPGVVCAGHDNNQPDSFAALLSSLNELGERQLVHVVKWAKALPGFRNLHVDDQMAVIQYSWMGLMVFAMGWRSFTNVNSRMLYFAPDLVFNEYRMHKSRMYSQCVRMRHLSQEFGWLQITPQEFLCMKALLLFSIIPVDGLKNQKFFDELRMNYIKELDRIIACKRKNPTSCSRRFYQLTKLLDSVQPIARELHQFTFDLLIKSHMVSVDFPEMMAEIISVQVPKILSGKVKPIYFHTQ
The experiment is described as follows: Rat Androgen Receptor Binding (polarscreen AR competitor assay, fluorescence polarization). The following applies: displacement of Fluormone AL Green, 4 hours at RT, read-out: AR rat-fluorimetric. In a few lines: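 Fluorescence-polarization competition of Fluormone AL Green binding to rat androgen receptor; compounds screened in duplicate at 1 and 10 μM, 4 h at RT, read at λexc 485/λem 535 nm. IC50 from 1:10 dilution series, 10 μM to 0.1 nM, in 1× buffer.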
Regarding `CC(=O)C1=C(C)NC(C)=C(C(=O)OCC2CC2)C1c1csc2ncccc12` (stereo not shown) [Example C24, Cyclopropylmethyl 5-acetyl-2,6-dimethyl-4-(thieno[2,3-b]pyridin-3-yl)-1,4-dihydropyridine-3-carboxylate], the IC50 is less than 100 nM.

For the compound `CC(=O)C1=C(C)NC(C)=C(C(=O)OCc2ccccc2)C1c1csc2ccccc12` (stereo not shown) [Example B6, Benzyl 5-acetyl-4-(benzo[b]thiophen-3-yl)-2,6-dimethyl-1,4-dihydro-pyridine-3-carboxylate], the IC50 fell in the range of 100 to 1000 nM.

Regarding `CC(=O)C1=C(C)NC(C)=C(C(=O)OCC2CCOCC2)C1c1csc2ccccc12` (stereo not shown) [Example C2, (Tetrahydro-2H-pyran-4-yl)methyl 5-acetyl-4-(benzo[b]thiophen-3-yl)-2,6-dimethyl-1,4-dihydropyridine-3-carboxylate], the IC50 lay in the range of 100 to 1000 nM.

Consider `COC(=O)C1=C(C2CC2)NC(C)=C(C(C)=O)C1c1csc2ncccc12` (stereo not shown) [Example J23, Methyl 5-acetyl-2-cyclopropyl-6-methyl-4-(thieno[2,3-b]pyridin-3-yl)-1,4-dihydropyridine-3-carboxylate], for which the IC50 is less than 100 nM.
